According to patent US10751304B2, “Topical and transdermal delivery of HIF-1 modulators to prevent and treat chronic wounds” (The Board of Trustees of the Leland Stanford Junior …, priority 2008, dated 2020):
Entries after “also recorded” stand apart in the source; their conditions may differ.

What was measured:
[1] = tested on: diabetic ulcers; assay: Murine pressure ulcer model, diabetic mice, transdermal patch; assay type: in vivo; conditions: transdermal patch delivery; controls Day 45+
Source text: (§1) Pressure ulcers on the dorsum of aged mice (19 month, NIA) and Diabetic (Db/Db) C57Bl/6 mice (n=6 per group) where created using two ceramic magnets (12 mm diameter and 5 mm thick, and average weight of 2.4 g) that apply 50 mm Hg pressure to the skin between them (Stadler et. al. J Invest Surg. 2004 July-August; 17(4):221-7). A single ischemia/reperfusion (I/R) cycle consists of placement of magnets (ischemia) for a designated time period followed by release (reperfusion). Three ischemia-reperfusion cycles were used in each animal to initiate decubitus ulcer formation (either in 3 h or 12 h cycles). Animals were housed individually, to prevent the accidental dislocation of the magnets and to prevent tampering with the resultant ulcer.
30 μm fresh frozen sections were washed with PBS and stained with 10 μM Dihydroethidium (DHE, invitrogen) at 37 C for 30 minutes. Slides were then washed with PBS, and Vectashield with DAPI was added.
Transdermal delivery of DFO reduces ROS accumulation and ulcer formation: We have completed studies examining the ability of our DFO patch to ameliorate diabetes-associated deficits in wound healing using our pressure ulcer model. This injury model causes increased levels of ROS, as assayed using dihydroethidium (DHE) fluorescent staining.

[2] = tested on: pressure ulcers on the dorsum of aged mice; assay: Murine pressure (decubitus) ulcer model in aged mice; assay type: in vivo; conditions: n=6
Source text: as §1
(§2) CD31 staining was performed on paraffin embedded 5-micron wound sections (1:50, Santa Cruz Biotechnology, Santa Cruz, Calif.) diluted in blocking goat serum overnight at 4° C. […] Sections were then mounted with Vectashield plus DAPI (Vector Laboratories, Burlingame, Calif.), and analyzed using a Zeiss Axioplan 2 light-fluorescent microscope (Carl Zeiss Vision, Germany) equipped with Zeiss AxioCam HR digital imaging software (Carl Zeiss Vision). […]
We evaluated the ability of DFO to prevent pressure ulcer formation, which has been associated with HIF-1α dysfunction and diabetes, using a previously described murine pressure ulcer model. […]

[3] = tested on: VEGF; assay: VEGF ELISA of harvested wounds; assay type: in vivo, murine; conditions: control 100 ng/ml
Method: ELISA. Total protein was isolated from harvested wounds by homogenizing tissue in RIPA buffer. VEGF and SDF-1 levels were measured using the Quantikine murine VEGF and SDF-1 ELISA kits (R&D Systems, Minneapolis, Minn.) according to manufacturer's instructions.

[4] = DFO patch release and skin penetration (Example 4); assay type: in vitro ADME
[5] = tested on: excisional wounds of diabetic (Db/Db) mice; assay: Murine excisional wound healing model, diabetic (Db/Db) mice; assay type: in vivo; conditions: topical, delivery control day 23
Source text: Young (8 weeks, Jackson Laboratories) aged (18-24 months, National Institute of Aging aged rodent colony), and Diabetic (Db/Db) C57/BL6 mice (n=4 per group) underwent excisional wound biopsies in accordance with the Stanford University Institutional Animal Care and Use Committees. Wounds were made as previously described. Briefly, two 6-mm circular, full-thickness wounds were made on the dorsum of mice. A 12 mm diameter, 0.5 mm thick donut shaped silicone ring (Grace Bio-Labs, Bend, Oreg.) was then placed around the wounds preventing premature skin contracture. […] Wounds were dressed with a sterile occlusive dressing that was changed daily, monitored, and photographed every other day until closure. […]
as §2
Transdermal delivery of DFO accelerates murine wound healing: Given the optimal release properties and structural parameters determined above, we sought to evaluate the ability of our DFO delivery device to improve gross wound healing in diabetic mice. […]

## CC(=O)N(O)CCCCCNC(=O)CCC(=O)N(O)CCCCCNC(=O)CCC(=O)N(O)CCCCCN [deferoxamine]
[1]
  diabetic ulcer closure: 30 days
[2]; controls day 19
  ulcer closure date: 17 days
[2]; pressure ulcer model, controls 100%
  Ulcer incidence: 33%
[3]
  VEGF via ELISA: 200 ng/mL
[4]; reverse micelles destabilized using 5% DMSO, listed as DFO
  DFO uptake into the skin / DFO delivery: inhibit DFO delivery; also recorded: significantly reduces the DFO uptake into the skin
[4]; without an occlusive backing
  drug penetration: very minimal drug penetration
[4]; without backing membrane
  reduction in skin penetration of DFO: 10 fold
[5]
  wound closure: 13 days
